Source: PubChem BioAssay (NCI)
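Cultured in 96-well plates, cells were exposed to test compound for 48 hours across five concentrations. TGI: total growth inhibition.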

Tests used:
Test in all cases: NCI tumour cell line growth inhibition, 48 h
MDA-N = test system: MDA-N
LOX IMVI melanoma = test system: LOX IMVI melanoma
OVCAR-5 ovarian = test system: OVCAR-5 ovarian
CAKI-1 renal = test system: CAKI-1 renal
HS 578T breast = test system: HS 578T breast
SK-MEL-28 melanoma = test system: SK-MEL-28 melanoma
SF-268 CNS = test system: SF-268 CNS
NCI-H460 lung = test system: NCI-H460 lung
A549 NSCLC = test system: A549 NSCLC
HOP-92 NSCLC = test system: HOP-92 NSCLC
PC-3 prostate = test system: PC-3 prostate
NCI-H226 lung = test system: NCI-H226 lung
SK-MEL-2 melanoma = test system: SK-MEL-2 melanoma
IGROV1 ovarian = test system: IGROV1 ovarian
MCF7 breast = test system: MCF7 breast
MOLT-4 leukemia = test system: MOLT-4 leukemia
RXF 393 renal = test system: RXF 393 renal
COLO 205 colon = test system: COLO 205 colon
T-47D breast = test system: T-47D breast
NCI/ADR-RES ovarian = test system: NCI/ADR-RES ovarian
SN12C renal = test system: SN12C renal
DU-145 prostate = test system: DU-145 prostate
786-0 renal = test system: 786-0 renal
SK-OV-3 ovarian = test system: SK-OV-3 ovarian
CCRF-CEM leukemia = test system: CCRF-CEM leukemia
OVCAR-4 ovarian = test system: OVCAR-4 ovarian
SW-620 colon = test system: SW-620 colon
BT-549 breast = test system: BT-549 breast
MALME-3M melanoma = test system: MALME-3M melanoma
SF-539 CNS = test system: SF-539 CNS
A498 renal = test system: A498 renal
ACHN renal = test system: ACHN renal
SK-MEL-5 melanoma = test system: SK-MEL-5 melanoma
EKVX NSCLC = test system: EKVX NSCLC
HCT-116 colon = test system: HCT-116 colon
OVCAR-8 ovarian = test system: OVCAR-8 ovarian
UACC-257 melanoma = test system: UACC-257 melanoma
MDA-MB-231 breast = test system: MDA-MB-231 breast
K-562 leukemia = test system: K-562 leukemia
SR leukemia = test system: SR leukemia
NCI-H522 lung = test system: NCI-H522 lung
TK-10 renal = test system: TK-10 renal
MDA-MB-435 = test system: MDA-MB-435
SNB-75 CNS = test system: SNB-75 CNS
KM12 colon = test system: KM12 colon
RPMI-8226 leukemia = test system: RPMI-8226 leukemia
NCI-H23 lung = test system: NCI-H23 lung
OVCAR-3 ovarian = test system: OVCAR-3 ovarian
HCT-15 colon = test system: HCT-15 colon
HT29 colon = test system: HT29 colon
SF-295 CNS = test system: SF-295 CNS
M14 melanoma = test system: M14 melanoma
UACC-62 melanoma = test system: UACC-62 melanoma
HOP-62 NSCLC = test system: HOP-62 NSCLC
SNB-19 CNS = test system: SNB-19 CNS
U251 CNS = test system: U251 CNS
HL-60(TB) leukemia = test system: HL-60(TB) leukemia
HCC-2998 colon = test system: HCC-2998 colon
UO-31 renal = test system: UO-31 renal

Measured: TGI

CC(=O)OC1(C)N=NC2(CCCCC2)O1 (centres undefined)
not listed: HCC-2998 colon | UO-31 renal
> 100 µM: all other assays above

CC(=O)Nc1cc2ccc(=O)oc2cc1Cl
not listed: SK-OV-3 ovarian | TK-10 renal
> 100 µM: all other assays above
